The test system of the assay is Platelets from HIT patients. The experiment in a line: Heparin-induced aggregation and ATP release of platelets from HIT patients. Type of assay: cell-based, human. The text has this: XL was capable of inhibiting the aggregation of platelets drawn from patients known to have heparin induced thrombocytopenia (HIT). Platelets from HIT patients were challenged with 0.5 U/ml concentration of heparin in the presence and absence of drug. […] XL is useful as an antiplatelet treatment for HIT patients who cannot be administered heparin due to the immune reaction with heparin that leads to aggregation rather than thrombolysis.
Platelets were drawn from HIT patients and challenged with heparin to a final concentration of 0.5 U/ml of low molecular weight heparin, in the presence and absence of the drug. […] ATP was detected in a lumi aggregometor (Chronolog Corp.). A luciferin-luciferase mixture was used to detect ATP release. The luciferin-luciferase mixture was previously calibrated to a known amount of ATP. Thus a spike in ATP release indicated platelet aggregation. As shown by the data, HIT patents have a large amplitude release when there is no XL compound present. When XL compound is present it inhibits this characteristic release of ATP.
Low heparin is low molecular weight heparin and high heparin is unfractionated heparin. The presence of low molecular weight heparin will cause platelet aggregation. All samples were treated with a constant final concentration of heparin; 0.5 U/ml—low and 100 U/ml high. HIT causes platelet aggregation in the Low Concentration of Heparin only, as well as a ration of >5.0 when comparing the Low/High concentration of Heparin.

Turning to `Cc1ncc(CNc2ccc(-c3ccc(C(=N)N)cc3)cc2)c(CO)c1O` [Compound XL], the “effects of heparin induced thrombocytopenia (HIT)” value (500 micromolar) is “completely suppress”. In addition, the “aggregation of platelets from HIT patients” value (500 micromolar, 0.5 U/ml heparin) is listed as “completely suppress”. In addition, the “Amplitude of ATP release spike (low Heparin)” value by setting is: (Patient 1, 500 μM, 0.5 U/ml low heparin, without drug 363) 14; (Patient 1, 2 mM) 28; (Patient 2, 500 μM, without drug 286) 11; (Patient 2, 2 mM) 12. The “Ratio of Low/High Heparin” value runs as follows: (Patient 1, 500 μM, without drug 42.4, HIT ratio >5.0) 1.9; (Patient 1, 2 mM) 2.7; (Patient 2, 500 μM, without drug 37.6) 1.6; (Patient 2, 2 mM) 1.6. In addition, the “Aggregation (Low Heparin)” value (Patient 1, 500 μM, without drug Present) is “Absent”; the “Aggregation (Low Heparin)” value (Patient 1, 2 mM) is recorded as “Absent”; the “Aggregation (Low Heparin)” value (Patient 2, 500 μM, without drug Present) was “Absent”; the “Aggregation (Low Heparin)” value (Patient 2, 2 mM) was “Absent”. Where the note is “heparin challenge, lumi aggregometer”, the “characteristic release of ATP of HIT platelets” value was “inhibits”.

(Values after US6897228B2, “Pyridoxine and pyridoxal analogues: new uses” (Medicure International Inc., priority 2000, dated 2005).)
